The subject of test [1] is P. aeruginosa cells. The experiment in a line: Oxygen consumption measurement (polarographic), P. aeruginosa. The test is classed as cell-based, Pseudomonas aeruginosa. The following applies: after 30 min; defensins 2 x NPIC, human lactoferrin 20 μM, piericidin A 32 µM; preincubated 15 min at 37 °C; untreated cells 83% ± 2%; means ± SD, three experiments. The method, then: (§1) Oxygen consumption by C. albicans and P. aeruginosa cells was determined by polarographically using a biological oxygen monitor (dual digital-model 20; Rank Brothers Ltd., Cambridge, UK) at 25 °C. The apparatus consisted of a twin water-jacketed closed sample chamber, which enabled a control experiment to be conducted concurrently. The cells were grown to mid-log phase in SDB (C. albicans) or TSB (P. aeruginosa), washed twice in Tris buffer, and resuspended in the same buffer. Cell suspensions (approximately 10^7 cells/mL) were preincubated with defensins (2 x NPIC), human lactoferrin (20 μM), or piericidin A (32 μM) for 15 min at 37 °C. Oxygen consumption was recorded at 5-min intervals for a period of 30 min. Three independent experiments were performed, and the data are means ± SD.

The test system of test [2] is P. aeruginosa cells. The experiment in a line: Permeability assay (propidium iodide uptake, flow cytometry), P. aeruginosa. It counts as cell-based, Pseudomonas aeruginosa. As to conditions: 90 min at 37 °C, Tris buffer, PI 1 µg/mL. The procedure: To determine whether the above microbicidal concentrations exert a permeabilizing effect on fungal and bacterial membranes, the influx of the fluorescent nucleic acid-binding dye propidium iodide (PI) in cells incubated with the peptides was assessed. In cells, dye uptake reflects membrane permeabilization, as PI itself cannot permeate through an intact phospholipid bilayer. […] To select an antimicrobial but non-permeabilizing concentration of each peptide for further assays, we defined as a non-permeabilizing inhibitory concentration (NPIC) the antimicrobial inhibitory concentration (≤10% viable cells) that permeabilized ≤ 10% of cells incubated (90 min at 37 °C) in buffer solution.
In general terms: In flow cytometry, cells or beads pass a laser one at a time.

Test [3] relates to Lactococcus lactis subsp. lactis (strain IL1403). As to the kind of experiment: Antimicrobial spread-plate (CFU) killing assay, fermenting L. lactis. As to conditions: fermentative conditions; range tested 0.062 to 2 µM; Tris buffer, 90 min at 37 °C. It counts as cell-based. The procedure: Microbial susceptibility to the peptides was determined in a spread-plate assay as described previously. Briefly, cell suspensions (10^6 cells/mL) in Tris buffer (10 mM Tris-HCl, pH 7.4) were incubated for 90 min at 37 °C with 2-fold serial peptide dilutions. Peptide concentrations ranged from 0 to 2 μM. After incubation, the number of viable cells was determined by plating aliquots (100 μL) in duplicate on plates (SDA for C. albicans, TSA for P. aeruginosa, and M17G agarified medium for L. lactis) that had been dried for 30 min at room temperature in a laminar flow hood. Plates were incubated for 24–48 h at 30 °C (C. albicans and L. lactis) or 24 h at 37 °C (P. aeruginosa). Dilutions yielding 50–200 colonies were counted. Cell viability values, expressed as colony-forming units (CFUs), were calculated relative to the incubation without added peptides and represent the means ± standard deviation (SD) from duplicates of three independent experiments. For inhibition assays, unless otherwise noted, cell suspensions were preincubated (15 min at 37 °C) with the appropriate inhibitor prior to the addition of peptides, but the inhibitor was present throughout the incubation period with the peptide (90 min at 37 °C). Other specific experimental conditions are described as appropriate. […]

For a further test, the system named is C. albicans cells. As to the kind of experiment: Oxygen consumption measurement (polarographic), C. albicans. It counts as cell-based, Candida albicans. As to conditions: after 30 min; defensins 2 x NPIC, human lactoferrin 20 μM, piericidin A 32 µM; preincubated 15 min at 37 °C; untreated cells 94% ± 2%; means ± SD, three experiments. The method, then:
as §1

The next test relates to Pma1p H^+-ATPase. As to conditions: Table 2; no reference given. The procedure: A whole-cell proton transport assay was used to evaluate the possible inhibition of the fungal Pma1p H^+-ATPase by defensins.
To measure proton pumping from Pma1p H^+-ATPase activity, a glucose-induced acid extrusion assay was performed as previously described with modifications. Briefly, cultures of C. albicans cells were grown to mid-log phase in SDB medium and washed twice in 100 mM Tris-HCl (pH 8.0). The cells were then resuspended in 50 mM KCl and maintained for 18 h at 4 °C to reduce metabolic activity to a minimum (starvation conditions). To determine external acidification, starved cells (approximately 10^7 cells/mL) were incubated for 15 min at 37 °C in the presence or absence of the defensins (2 x NPIC). Cells incubated with 20 µM human lactoferrin or 0.5 µM BM2 peptide were used as positive controls. The initial pH of the cell suspension was adjusted to approximately pH 6.8 with HCl, and glucose (final concentration of 2.5 mM) was immediately added to the cell suspension. The pH of the medium was recorded at 5-min intervals for 20 min using a SevenMulti S50-K pH meter (Mettler-Toledo, Greifensee, Switzerland) with a calibrated electrode (InLab 413, Mettler-Toledo) under constant stirring. Each experiment was repeated three times in an independent manner.

Where no end group is shown, it is not given here. Bounds are passed on as bounds.

In the case of “HNP-1: human α-defensin, UniProtKB P59665, 30 amino acids, three disulfide bonds; purchased from PeptaNova”, in the test on P. aeruginosa cells [1], the “O2 consumption of P. aeruginosa” value was 72% ± 2%. The “concentration showing permeabilizing activity (increase in intracellular PI), P. aeruginosa” value with P. aeruginosa cells [2] is not below 0.5 µM. Further, the “calculated NPIC against fermenting L. lactis” value in test [3] was 0.125 µM. In addition, the “oxygen consumption percentage of C. albicans” value (“oxygen consumption percentage” for short) in the test with C. albicans cells is 87% ± 4%. In the test on Pma1p H^+-ATPase, the “Inhibition of H^+-extrusion (yeast)” value was “Yes”.
For the substance “HNP-4: human α-defensin, UniProtKB P12838, 33 amino acids; purchased from PeptaNova (VCSCRLVFCRRTELRVGNCLIGGVSFTYCCTRV; ends and bridges not checked; cysteine pairing not given here; UniProt P12838 64-96, looked up)”, the “O2 consumption of P. aeruginosa” value with P. aeruginosa cells [1] was 75% ± 2%. Moreover, the “oxygen consumption percentage” value with C. albicans cells is given as 81% ± 3%. For the same substance, the “Inhibition of H^+-extrusion (yeast)” value in the test with Pma1p H^+-ATPase is reported as “Yes”.
Turning to “hBD-3: human β-defensin, UniProtKB Q5U7J2, 45 amino acids; purchased from PeptaNova (GIINTLQKYYCRVRGGRCAVLSCLPKEEQIGKCSTRGRKCCRRKK; Beta-defensin 103; UniProt P81534 23-67, looked up)”, in the test on P. aeruginosa cells [1], the “O2 consumption of P. aeruginosa” value is listed as 82% ± 4%. For the same substance, the “oxygen consumption percentage” value in the test with C. albicans cells is 79% ± 4%. Besides, the “Inhibition of H^+-extrusion (yeast)” value with Pma1p H^+-ATPase was “Yes”.

Source of the values: PMC11242853, “The Antimicrobial Activity of Human Defensins at Physiological Non-Permeabilizing Concentrations Is Caused by the Inhibition of the Plasma Membrane H^+-ATPases” (International Journal of Molecular Sciences, 2024).
